We go through two molecules from patent US7687473B2, “5-amino-4-imidazolecarboxamide riboside and its nucleobase as potentiators of antifolate transport and metabolism” (Health Research, Inc., priority 2005, dated 2010).

The subject of data set [1] is CCRF-CEM cells. Briefly: Protein-bound intracellular [3H]MTX. It counts as cell-based, human. Here is the method: The cell pellet was frozen immediately at less than or equal to −80 degrees C. To process, 1 ml iced lysis buffer was added to the pellet immediately after removal from the freezer and the pellet was dispersed with a pasteur pipette. Freshly made lysis buffer contained (final concentrations): 50 mM citric-citrate, pH 6.0, 50 mM 2-mercaptoethanol, 50 μM NADPH (in 25 mM Tris, pH7.5), and 2 mg/ml bovine serum albumin. The sample was freeze-thawed once in dry ice-methanol, centrifuged at 1860×g for 10 min to remove debris and then further clarified by centrifugation through an Amicon MPS-1 filter unit. A 5 ml centrifugal column was prepared at 4 degrees C. in a 5 ml plastic syringe plugged with a porous plastic frit overlaid with a GF/C glass fiber filter cut with a #8 cork borer, then packed with Sephadex G-25 (Medium) in 50 mM citric-citrate, pH 6.0 to the 5 ml line, and centrifuged 5 min at 1000×g (0°) to expel liquid. The clarified supernatant (0.5 ml) was applied to the top of the column, the column was re-centrifuged at 1000×g (5 min) and the pass-through was collected in a 7 ml scintillation vial. After addition of scintillation fluid (5.5 ml), the sample was quantitated by liquid scintillation counting.

Data set [2] relates to CCRF-CEM cells. Nature of the data set: Subcellular localization of [3H]MTX. The format is cell-based, human. Here is the method: Subcellular fractionation. […] Cells were diluted 9-fold in iced 0.9% NaCl, centrifuged at 1000×g for 5 min and washed once with 40 ml iced saline. All subsequent steps were performed at 4°. Cells were homogenized as previously described, except that hypotonic buffer at 20-fold the packed cell volume was used, and the homogenate was centrifuged for 6 min at 1000×g to yield a nuclear pellet (also containing unlysed cells and large debris) and a post-nuclear supernatant (PNS). Based on controls using nonradiolabeled cells, >91% of the cells would be lysed during homogenization. The PNS was centrifuged at 17,000×g to yield a combined mitochondria-lysosome pellet. The resulting supernatant was centrifuged at 100,000×g for 60 min to yield the 100,000×g supernatant (cytosol). The 100,000×g pellet (microsomes) and the combined mitochondria-lysosome pellet were each washed in isotonic buffer and centrifuged at their respective g-forces. All pellets were solubilized in 0.3% Triton X-100 by incubating at 37° for 1 hr; 1 ml was transferred to a scintillation vial for quantitation. Triton X-100 was added to the cytosol to a final concentration of 0.3% and a 1 ml aliquot was quantitated. Radioactivity in each fraction was corrected for a blank containing 0.3% Triton X-100.

Data set [3] has as its system R2 (MTX-resistant CCRF-CEM subline). Nature of the data set: Inhibition of growth of RFC-defective subline R2. The format is cell-based. As to conditions: Homo sapiens, continuous exposure, no Z, read-out: EC50 against R2. Here is the method:
Inhibition of growth of human cell lines in vitro. Inhibition of growth of CCRF-CEM in continuous and intermittent drug exposures was measured. EC50 values were determined from plots of percent control growth versus the logarithm of drug concentration.
TMTX was present in both conditions to establish DHFR inhibition, since that appears to be required.

Data set [4] has as its target T1, es (or ENT1) facilitated diffusion nucleoside transport system (Homo sapiens, UniProt Q99808).
T1 construct: this is the only nucleoside transporter present in CCRF-CEM cells; endogenous in cells; host or cells: CCRF-CEM (parental), in HBSS
T1 sequence (Q99808 1-456): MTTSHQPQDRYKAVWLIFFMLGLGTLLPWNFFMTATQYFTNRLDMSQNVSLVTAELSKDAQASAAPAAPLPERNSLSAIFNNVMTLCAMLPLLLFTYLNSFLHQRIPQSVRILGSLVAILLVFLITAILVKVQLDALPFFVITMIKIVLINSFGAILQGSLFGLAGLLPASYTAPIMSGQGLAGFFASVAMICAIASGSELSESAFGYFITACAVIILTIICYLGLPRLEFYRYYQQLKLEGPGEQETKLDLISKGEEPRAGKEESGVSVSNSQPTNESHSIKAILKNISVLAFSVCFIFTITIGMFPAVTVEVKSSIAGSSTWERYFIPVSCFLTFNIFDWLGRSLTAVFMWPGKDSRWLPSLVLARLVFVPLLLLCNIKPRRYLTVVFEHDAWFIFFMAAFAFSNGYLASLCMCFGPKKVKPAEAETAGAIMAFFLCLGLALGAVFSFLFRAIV
Nature of the data set: Inhibition of Z potentiation of [3H]MTX uptake by es nucleoside transporter inhibitors. The note with it: [Z] 500 μM, HBSS. It counts as cell-based.

Data set [5] relates to R2 clones transfected with human RFC expression plasmid. Nature of the data set: [3H]MTX transport in RFC-transfected R2 clones. It counts as cell-based. How it is done: To further confirm the involvement of RFC, we transfected the RFC-negative R2 subline of CCRF-CEM with a human RFC expression plasmid. Stably expressing clones were selected in 2 nM leucovorin (LV)-containing RPMI 1640 medium (R2 cannot replicate in this medium, while parental RFC-expressing CCRF-CEM can replicate). […] This supports RFC as mediating the transport potentiated by Z.

Data set [6] deals with araC 8C subline of CCRF-CEM. Briefly: [3H]MTX uptake in es-deficient araC 8C subline. The format is cell-based, human. The note with it: 30 min time course ±Z. How it is done:
Z potentiation was evaluated: (1) in a subline of CCRF-CEM (araC 8C) deficient in the es (or ENT1) facilitated diffusion nucleoside transport system (this is the only nucleoside transporter present in CCRF-CEM cells); and (2) in the presence of specific inhibitors of the es nucleoside transporter. […] Note that potentiation by Z is large in these studies because they were performed in HBSS to avoid binding of inhibitors by serum proteins and Z potentiation is higher in HBSS than in RPMI1640. […] Concentration-dependence studies are proposed to quantitate the potency of each inhibitor (IC50).

For data set [7] the following is noted: human, in vivo; cited from earlier work.
Data set [8] relates to dCK-deficient subline of CCRF-CEM. Briefly: [3H]MTX uptake in deoxycytidine kinase-deficient subline. The format is cell-based, human. As to conditions: compared to parental CCRF-CEM. How it is done: Z metabolism by deoxycytidine kinase is not essential for Z potentiation. These experiments were conducted to determine if Z itself can cause potentiation orf needs to be metabolized to exert its effect. For these experiments, a deoxycytidine kinase (dCK)-deficient subline of CCRF-CEM was used. Although designated as dCK, this enzyme also phosphorylates the purines deoxyadenosine, deoxyguanosine, and fludarabine. Use of this subline allowed us to test the hypothesis that phosphorylation of Z to ZMP by dCK is essential for potentiation. […] Thus it appears that dCK is not absolutely required for Z potentiation, but may contribute to the metabolism.

Data set [9] relates to K562 human chronic myelogenous leukemia cell line. Nature of the data set: [3H]MTX influx in K562 cells. The format is cell-based. The note with it: 0.5 mM Z; data not shown.

Regarding `CN(Cc1cnc2nc(N)nc(N)c2n1)c1ccc(C(=O)N[C@@H](CCC(=O)O)C(=O)O)cc1` [MTX, 4-amino-10-methylpteroylglutamic acid], the “Protein-bound MTX level at 30 min” value with CCRF-CEM cells [1] (absence of Z) is 6.4±0.1 pmol/10^7 cells; in the data set on CCRF-CEM cells [1] (presence of 0.5 mM Z), 5.4±0.4 pmol/10^7 cells. Also, the “Cytosol material that is MTX or metabolites (HPLC)” value in the data set on CCRF-CEM cells [2] is reported as more than 90%. Besides, in the data set with CCRF-CEM cells [2] (nuclear pellet excluded), the “Radioactivity that is cytosolic, post-nuclear supernatant only” value was more than 98%. In the data set on CCRF-CEM cells [2] (±Z), the “Total recovered radioactivity in the cytosolic fraction” value is “More than 91%”. For the same molecule, the EC50 in data set [3] was determined as 2200 nM.

In the case of `NC(=O)c1ncn([C@@H]2O[C@H](CO)[C@@H](O)[C@H]2O)c1N` [Z, 5-amino-4-imidazolecarboxamide riboside], in data set [4], the “Rel Corrected 30 min accumulation (relative to +Z, no inhibitor)” value turned out to be 1 and the “Relative Corrected vi (relative to +Z, no inhibitor)” value is reported as 1. For the same molecule, in data set [4] (no inhibitor), the “Accumulation at 30 min” value was found to be 108.3 pmol, the “Corrected 30 min accumulation (accum +Z minus accum −Z with same inhibitor)” value came out at 91.3, the “Corrected vi (rate +Z minus rate −Z with same inhibitor)” value came to 4.25 and the vi turned out to be 5.65 pmol/min. Besides, the “Potentiation of [3H]MTX transport in RFC-transfected clones compared with CCRF-CEM” value in data set [5] is reported as “potentiated by Z to a similar extent”. Besides, the “Potentiation of [3H]MTX uptake in araC 8C subline” value in data set [6] is given as “no potentiation”. Further, in data set [7], the “Toxicity in clinical trials” value was “nontoxic”. Moreover, in data set [8], the “Potentiation of [3H]MTX uptake in dCK-deficient subline” value is recorded as “showed potentiation by Z, although to a slightly lower level”. The “Potentiation of [3H]MTX influx” value in [9] is “potentiates”.
